The results in this text go back to US20240123079A1 (Seagen Inc., priority 2021, published 2024).

For one assay, the system named is THP1-Dual™ reporter cells. Kind of assay: THP1-Dual cell reporter assay (IRF-Lucia luciferase reporter). The format is cell-based, human. The conditions noted are these: ADCs: drug linker conjugated to a targeted mAb, 48 h. On the procedure: THP1-Dual™ Cell Reporter Assay
Potency of compounds and ADCs was evaluated using the THP1-Dual™ cells (InvivoGen PN: thpd-nfis [also referred to as THP1 dual reporter cells]), which contain an IRF-Lucia luciferase reporter. Cells were cultured in RPMI-1640 (Gibco) with 10% heat-inactivated fetal bovine serum, Pen-Strep (100 U/mL-100 μg/mL, Gibco), HEPES (10 mM, Gibco)), sodium pyruvate (1 mM, Gibco), MEM non-essential amino acids (1×, Gibco), GlutaMAX (1×, Gibco), and beta-mercaptoethanol (55 μM, Gibco). Cells were plated in a 96-well flat bottom tissue culture-treated clear polystyrene plate (Corning Costar #3596) at ˜100,000 cells per well in 200 μL with the indicated concentration of the compound or ADC. The supernatant was harvested at 24 hours (compounds) or 48 hours (ADC) post plating for the reporter assay, or as indicated. To measure Lucia reporter signal, 10 μL of the supernatant was combined with 40 μL of QUANTI-Luc™ Luminescence assay reagent (Invivogen PN: rep-qlc1) in a 96-well clear flat bottom tissue culture-treated black polystyrene plate (Corning Costar #3603) and read on a Perkin Elmer Envision plate reader.
STING agonist compounds were assessed for their ability to activate THP1-Dual™ reporter cells, a human monocytic cell line in which type I interferon (IRF) signaling can be monitored via a secreted luciferase reporter protein (Lucia). THP1-Dual™ cells were treated with increasing concentrations of the agonists for 24h, then supernatants were harvested and the Lucia reporter signal was quantified using QUANTI-Luc™ Luminescence assay reagent.
Background: Reporter assays use an easily measured gene product as a stand-in for the process of interest.
Take `CCn1nc(C)cc1C(=O)Nc1nc2cc(C(=O)OC)cc(OC)c2n1C/C=C/Cn1c(NC(=O)c2cc(C)nn2CC)nc2cc(C(=O)OC)cc(OCCCN(C)C(=O)CCN3C(=O)C=CC3=O)c21` [Compound 66, methyl (E)-7-(3-(3-(2,5-dioxo-2,5-dihydro-1H-pyrrol-1-yl)-N-methylpropanamido)propoxy)-2-(1-ethyl-3-methyl-1H-pyrazole-5-carboxamido)-1-(4-(2-(1-ethyl-3-methyl-1H-pyrazole-5-carboxamido)-7-methoxy-5-(methoxycarbonyl)-1H-benzo[d]imidazol-1-yl)but-2-en-1-yl)-1H-benzo[d]imidazole-5-carboxylate]: the “EC50 (ng/mL)” value is >10,000 ng/mL.
For `CCn1nc(C)cc1C(=O)Nc1nc2cc(C(=O)OC)cc(OC)c2n1C/C=C/Cn1c(NC(=O)c2cc(C)nn2CC)nc2cc(C(=O)OC)cc(OCCCN(C)C(=O)OCc3ccc(O[C@@H]4O[C@H](C(=O)O)[C@@H](O)[C@H](O)[C@H]4O)cc3NC(=O)CCNC(=O)CCN3C(=O)C=CC3=O)c21` [Compound 67], the “EC50 (ng/mL)” value was >10,000 ng/mL.
Same read-out and setting: to `CCn1nc(C)cc1C(=O)Nc1nc2cc(C(=O)O)cc(OC)c2n1C/C=C/Cn1c(NC(=O)c2cc(C)nn2CC)nc2cc(C(=O)O)cc(OCCCN(C)C(=O)CCN3C(=O)C=CC3=O)c21` [Compound 68, (E)-1-(4-(5-carboxy-2-(1-ethyl-3-methyl-1H-pyrazole-5-carboxamido)-7-methoxy-1H-benzo[d]imidazol-1-yl)but-2-en-1-yl)-7-(3-(3-(2,5-dioxo-2,5-dihydro-1H-pyrrol-1-yl)-N-methylpropanamido)propoxy)-2-(1-ethyl-3-methyl-1H-pyrazole-5-carboxamido)-1H-benzo[d]imidazole-5-carboxylic acid] belongs >10,000 ng/mL.
In the case of `CCn1nc(C)cc1C(=O)Nc1nc2cc(C(=O)O)cc(OC)c2n1C/C=C/Cn1c(NC(=O)c2cc(C)nn2CC)nc2cc(C(=O)O)cc(OCCCN(C)C(=O)OCc3ccc(O[C@@H]4O[C@H](C(=O)O)[C@@H](O)[C@H](O)[C@H]4O)cc3NC(=O)CCNC(=O)CCN3C(=O)C=CC3=O)c21` [Compound 69], the “EC50 (ng/mL)” value is given as >10,000 ng/mL.

The same assay, now with this note: Homo sapiens, THP1-Dual; free compounds, 24 h, Lucia reporter signal; read-out: EC50.
What is called EC50 is the concentration that produces a half-maximal response. Consider `COc1cc(C(N)=O)cc2nc(NC(=O)C3CCCC3)n(C/C=C/Cn3c(NC(=O)C4CCCC4)nc4cc(C(N)=O)cc(O)c43)c12` [Compound 56], for which the EC50 is over 10 µM.
With `COc1cc(C(N)=O)cc2nc(NC(=O)C3CCC3)n(C/C=C/Cn3c(NC(=O)C4CCC4)nc4cc(C(N)=O)cc(O)c43)c12` [Compound 57], the concentration giving a half-maximal response (EC50) was over 10 µM.
Take `COc1cc(C(N)=O)cc2nc(NC(=O)c3cc(C)no3)n(C/C=C/Cn3c(NC(=O)c4cc(C)no4)nc4cc(C(N)=O)cc(O)c43)c12` [Compound 58]: the EC50 was over 10 µM.
Consider `COc1cc(C(N)=O)cc2nc(NC(=O)c3ccno3)n(C/C=C/Cn3c(NC(=O)c4ccno4)nc4cc(C(N)=O)cc(O)c43)c12` [Compound 59], for which the concentration for a half-maximal effect (EC50) was over 10 µM.
As for `COc1cc(C(N)=O)cc2nc(NC(=O)c3cc(C)ns3)n(C/C=C/Cn3c(NC(=O)c4cc(C)ns4)nc4cc(C(N)=O)cc(O)c43)c12` [Compound 60], the half-maximal effective concentration (EC50) was over 10 µM.
With `CCn1nc(C)cc1C(=O)Nc1nc2cc(C(=O)OC)cc(O)c2n1C/C=C/Cn1c(NC(=O)c2cc(C)nn2CC)nc2cc(C(=O)OC)cc(OC)c21` [Compound 62, methyl (E)-2-(1-ethyl-3-methyl-1H-pyrazole-5-carboxamido)-1-(4-(2-(1-ethyl-3-methyl-1H-pyrazole-5-carboxamido)-7-hydroxy-5-(methoxycarbonyl)-1H-benzo[d]imidazol-1-yl)but-2-en-1-yl)-7-methoxy-1H-benzo[d]imidazole-5-carboxylate], the concentration for a half-maximal effect (EC50) is over 10 µM.
Turning to `CCn1nc(C)cc1C(=O)Nc1nc2cc(C(=O)O)cc(O)c2n1C/C=C/Cn1c(NC(=O)c2cc(C)nn2CC)nc2cc(C(=O)O)cc(OC)c21` [Compound 63, (E)-1-(4-(5-carboxy-2-(1-ethyl-3-methyl-1H-pyrazole-5-carboxamido)-7-hydroxy-1H-benzo[d]imidazol-1-yl)but-2-en-1-yl)-2-(1-ethyl-3-methyl-1H-pyrazole-5-carboxamido)-7-methoxy-1H-benzo[d]imidazole-5-carboxylic acid], the half-maximal effective concentration (EC50) worked out at 2.51 µM.
As for `CCn1nc(C)cc1C(=O)Nc1nc2cc(C(=O)OC)cc(OC)c2n1C/C=C/Cn1c(NC(=O)c2cc(C)nn2CC)nc2cc(C(=O)OC)cc(OCCCNC)c21` [Compound 66b], the 50% effective concentration (EC50) was found to be 1.16 µM.
`CCn1nc(C)cc1C(=O)Nc1nc2cc(C(N)=O)cc(O)c2n1C/C=C/Cn1c(NC(=O)c2cc(C)nn2CC)nc2cc(C(N)=O)cc(OCCCN3CCOCC3)c21` [Compound 70]: the EC50 came out at 0.0016 µM.
Take `CCn1nc(C)cc1C(=O)Nc1nc2cc(C(N)=O)cc(OC)c2n1C/C=C/Cn1c(NC(=O)c2cc(C)nn2CC)nc2cc(C(N)=O)cc(OCCCN(C)C(=O)[C@H](CC(=O)O)NC(=O)CCN3C(=O)CC(SC[C@H](N)C(=O)O)C3=O)c21` (stereo partly drawn) [Compound 71]: the EC50 was 0.0701 µM.
As to `CCn1nc(C)cc1C(=O)Nc1nc2cc(C(N)=O)cc(OC)c2n1C/C=C/Cn1c(NC(=O)c2cc(C)nn2CC)nc2cc(C(N)=O)cc(OCCCN(C)C(=O)CNC(=O)CCN3C(=O)CC(SC[C@H](N)C(=O)O)C3=O)c21` (stereo partly drawn) [Compound 73], the EC50 came out at 0.216 µM.
Regarding `CCn1nc(C)cc1C(=O)Nc1nc2cc(C(N)=O)cc(OC)c2n1C/C=C/Cn1c(NC(=O)c2cc(C)nn2CC)nc2cc(C(N)=O)cc(OCCCN(C)C(=O)[C@H](C)NC(=O)CCN3C(=O)CC(SC[C@H](N)C(=O)O)C3=O)c21` (stereo partly drawn) [Compound 74], the EC50 is 0.036 µM.
For the compound `CCn1nc(C)cc1C(=O)Nc1nc2cc(C(N)=O)cc(OC)c2n1C/C=C/Cn1c(NC(=O)c2cc(C)nn2CC)nc2cc(C(N)=O)cc(OCCCN(C)C(=O)[C@H](CO)NC(=O)CCN3C(=O)CC(SC[C@H](N)C(=O)O)C3=O)c21` (stereo partly drawn) [Compound 75], the EC50 is 0.0577 µM.
As to `CCn1nc(C)cc1C(=O)Nc1nc2cc(C(N)=O)cc(OC)c2n1C/C=C/Cn1c(NC(=O)c2cc(C)nn2CC)nc2cc(C(N)=O)cc(OCCCN(C)C(=O)[C@H](COC)NC(=O)CCN3C(=O)CC(SC[C@H](N)C(=O)O)C3=O)c21` (stereo partly drawn) [Compound 76], the EC50 was 0.0588 µM.
As for `CCn1nc(C)cc1C(=O)Nc1nc2cc(C(N)=O)cc(OC)c2n1C/C=C/Cn1c(NC(=O)c2cccnn2)nc2cc(C(N)=O)cc(OCCCNC)c21` [Compound 79], the half-maximal effective concentration (EC50) was over 10 µM.
`CCn1nc(C)cc1C(=O)Nc1nc2cc(C(N)=O)cc(OC)c2n1C/C=C/Cn1c(NC(=O)c2ccnnc2)nc2cc(C(N)=O)cc(OCCCNC)c21` [Compound 80]: the 50% effective concentration (EC50) was over 10 µM.
On to `CCn1nc(C)cc1C(=O)Nc1nc2cc(C(N)=O)cc(OC)c2n1C/C=C/Cn1c(NC(=O)c2cc(C)on2)nc2cc(C(N)=O)cc(OCCCNC)c21` [Compound 81], for which the EC50 was over 10 µM.
Turning to `CCn1nc(C)cc1C(=O)Nc1nc2cc(C(N)=O)cc(OC)c2n1C/C=C/Cn1c(NC(=O)c2cc(C)no2)nc2cc(C(N)=O)cc(OCCCNC)c21` [Compound 82], the concentration for a half-maximal effect (EC50) was over 10 µM.
Take `CCn1nc(C)cc1C(=O)Nc1nc2cc(C(N)=O)cc(OC)c2n1C/C=C/Cn1c(NC(=O)c2cc(C)ns2)nc2cc(C(N)=O)cc(OCCCNC)c21` [Compound 83]: the EC50 is over 10 µM.
As for `CCn1nc(C)cc1C(=O)Nc1nc2cc(C(N)=O)cc(OC)c2n1C/C=C/Cn1c(NC(=O)c2ncccn2)nc2cc(C(N)=O)cc(OCCCNC)c21` [Compound 84], the concentration for a half-maximal effect (EC50) was over 10 µM.
As for `CCn1cc(C(=O)Nc2nc3cc(C(N)=O)cc(OCCCNC)c3n2C/C=C/Cn2c(NC(=O)c3cc(C)nn3CC)nc3cc(C(N)=O)cc(OC)c32)c(C)n1` [Compound 85], the EC50 is over 10 µM.
Consider `CCn1cc(C)nc1C(=O)Nc1nc2cc(C(N)=O)cc(OCCCNC)c2n1C/C=C/Cn1c(NC(=O)c2cc(C)nn2CC)nc2cc(C(N)=O)cc(OC)c21` [Compound 86], for which the EC50 was 2.46 µM.
For the compound `CCc1cc(C(=O)Nc2nc3cc(C(N)=O)cc(OCCCNC)c3n2C/C=C/Cn2c(NC(=O)c3cc(C)nn3CC)nc3cc(C(N)=O)cc(OC)c32)n(C)n1` [Compound 87], the 50% effective concentration (EC50) is over 10 µM.
Regarding `CCn1nc(C)cc1C(=O)Nc1nc2cc(C(N)=O)cc(OC)c2n1C/C=C/Cn1c(NC(=O)c2cc(C)nn2C)nc2cc(C(N)=O)cc(OCCCNC)c21` [Compound 88], the EC50 stood at 0.394 µM.
Consider `CCc1oc(C)cc1C(=O)Nc1nc2cc(C(N)=O)cc(OCCCNC)c2n1C/C=C/Cn1c(NC(=O)c2cc(C)nn2CC)nc2cc(C(N)=O)cc(OC)c21` [Compound 89], for which the concentration giving a half-maximal response (EC50) is 1.32 µM.
On the same count and under the same terms, the same measure for `CCn1nc(C)cc1C(=O)Nc1nc2cc(C(N)=O)cc(OC)c2n1C/C=C/Cn1c(NC(=O)c2cc(C)sn2)nc2cc(C(N)=O)cc(OCCCNC)c21` [Compound 90]: over 10 µM.
Turning to `CCn1nc(C)cc1C(=O)Nc1nc2cc(C(N)=O)cc(OC)c2n1C/C=C/Cn1c(NC(=O)c2ccnn2CC)nc2cc(C(N)=O)cc(OCCCNC)c21` [Compound 91], the concentration for a half-maximal effect (EC50) stood at 0.35 µM.
As to `CCn1nc(C)cc1C(=O)Nc1nc2cc(C(N)=O)cc(OC)c2n1C/C=C/Cn1c(NC(=O)c2cc(C(F)(F)F)nn2CC)nc2cc(C(N)=O)cc(OCCCNC)c21` [Compound 92], the 50% effective concentration (EC50) was 1.19 µM.
Regarding `CCn1nc(C)cc1C(=O)Nc1nc2cc(C(N)=O)cc(OC)c2n1C/C=C/Cn1c(NC(=O)c2c(C)cnn2C)nc2cc(C(N)=O)cc(OCCCNC)c21` [Compound 93], the concentration giving a half-maximal response (EC50) is over 10 µM.
